Consider seven molecules from publication PMC6270205, “Antimicrobial and Selected In Vitro Enzyme Inhibitory Effects of Leaf Extracts, Flavonols and Indole Alkaloids Isolated from Croton menyharthii” (Molecules, 2013).

The target in one assay is T1, yeast α-glucosidase (Saccharomyces cerevisiae, UniProt P53341).
T1 construct: purchased Sigma-Aldrich
In words: α-Glucosidase inhibitory activity. The format is biochemical, Saccharomyces cervisiae. As for the experimental part:
All thin layer chromatography analyses were performed at room temperature using pre-coated plates (MERCK, silica gel 60 F254 0.2 thickness). Detection of spots was done by viewing under UV light (254 and 366 nm). Open column chromatography was carried out using silica gel (230-400 mesh) and Sephadex LH-20. Nuclear magnetic resonance (NMR) data were obtained using Bruker spectrometers (400 and 500 MHz). Chemical shifts are expressed in parts per million (ppm).
α-Glucosidase inhibitory activity was determined as previously described by Tao et al. with modifications as detailed by Rengasamy et al.. Briefly, yeast α-glucosidase (0.1 Unit/mL) was dissolved in 0.1 M potassium phosphate buffer (pH 6.8), this was used as the enzyme solution. The control experiment contained the same reaction mixture, but the sample solution was replaced with the same volume of phosphate buffer. […] The determinations were carried out in triplicate. The percentage inhibition (%) was calculated using the following equation: % Inhibition = (Acontrol − Asample)/Acontrol × 100(1) where Acontrol is the absorbance of the control and Asample is the absorbance of the sample. The IC50, which is the concentration of the sample required to inhibit 50% of the enzyme was determined for each sample.

Assay [1] relates to Candida albicans (ATCC 10231). The assay can be described thus: Antifungal microdilution bioassay (MIC). The format is cell-based. On the procedure:
The antifungal activity of the crude methanol extract, fractions and isolated compounds were evaluated against Candida albicans (ATCC 10231) using the micro-dilution assay, modified for an antifungal assay. An overnight fungal culture was prepared in 10 mL yeast malt (YM) broth. Four hundred microliters of the overnight Candida culture were added to 4 mL of sterile saline solution. The absorbance was read at 530 nm and adjusted with sterile saline solution to match that of a […] McFarland standard solution. From this prepared stock, a 1:1000 dilution with sterile YM broth was prepared to give an approximately 10^6 cfu/mL culture. One hundred microlitres of the resuspended (in 70% aqueous acetone) crude extract, fractions (50 mg/mL) or compounds (1 mg/mL) were two-fold serially diluted with sterile distilled water, in duplicate down a 96-well microtitre plate. A similar 2-fold serial dilution of amphotericin B (Sigma, 2.5 mg/mL) was used as a positive control. Water, 70% aqueous acetone and fungal free broth were included as negative/solvent controls. The screening was done in triplicate and repeated twice for each extract, the MIC and MFC values were recorded.
In general terms: Broth dilution looks for growth in wells or tubes with falling amounts of substance.

Assay [2] addresses T2, AChE (isolated from electric eels) (Electrophorus electricus, UniProt O42275).
T2 construct: AChE (isolated from electric eels) (type VI-S lyophilized powder); purchased Sigma-Aldrich type VI-S lyophilized powder; host or cells: isolated from electric eels
In words: biochemical. On the procedure: Inhibition of AChE by the crude methanol extract, fractions and isolated compounds was done as described by Ellman et al. with some modifications. The acetylcholinesterase enzyme activity was measured by spectrophotometric observation of the increase in a yellow colour produced from thiocholine when it reacts with the dithiobisnitrobenzoate ion. AChE (isolated from electric eels) (type VI-S lyophilized powder) was obtained from Sigma-Aldrich. The assay was carried out in a 96-well microtitre plate. The crude methanol extract, fractions and isolated compounds were at initial concentrations of 10 mg/mL (crude extract and fractions) and 1 mg/mL (pure compounds). The increase in absorbance due to the spontaneous hydrolysis of the substrate was corrected by subtracting the ratio of reaction before adding the enzyme from the rate after adding the enzyme (0.2 U/mL). Percentage of inhibition was calculated by comparing the reaction rates for the sample to the negative control. […] The IC50 values of extracts and compounds were calculated using Graph Pad Prism (version 5.0) statistical software programme for Windows (GraphPad Software Inc.).

Assay [3] concerns Escherichia coli ATCC 11775. The assay can be described thus: Antibacterial microdilution bioassay (MIC). The settings on record: for Antimicrobial MIC E.c.: n = 3. The format is cell-based. As for the experimental part:
(§1) Minimum inhibitory concentration (MIC) values for antibacterial activity of the crude methanol extract, fractions and isolated compounds were determined using the microdilution bioassay in a 96-well (Greiner Bio-one GmbH, Frickenhausen, Germany) microtitre plates. One hundred microlitres of the resuspended (in 70% aqueous acetone) crude extract, fractions (50 mg/mL) or compounds (1 mg/mL) was two-fold serially diluted with sterile distilled water, in duplicate down the microtitre plate for each of the four bacteria used. A similar two-fold serial dilution of neomycin (Sigma) (0.1 mg/mL) was used as a positive control against each bacterium. Water and 70% aqueous acetone were included as a negative/solvent controls. The screening was done in triplicate and repeated twice for each extract.

For assay [4], the system named is Staphylococcus aureus ATCC 12600. The assay can be described thus: Antibacterial microdilution bioassay (MIC). The class given is cell-based. The settings on record: for Antimicrobial MIC S.a.: n = 3. On the procedure: as §1
The subject of assay [5] is Klebsiella pneumoniae ATCC 13883. The assay can be described thus: Antibacterial microdilution bioassay (MIC). The settings on record: for MIC: Klebsiella pneumoniae. The class given is cell-based. As for the experimental part:
as §1

For assay [6], the system named is Bacillus subtilis ATCC 6051. The assay can be described thus: Antibacterial microdilution bioassay (MIC). The class given is cell-based. The settings on record: for Antimicrobial MIC B.s.: n = 3. On the procedure:
as §1

For assay [7], the target named is T3, human recombinant COX-2 enzyme (Homo sapiens, UniProt P35354).
T3 construct: His6 (N); purchased Sigma-Aldrich; host or cells: Baculovirus overexpression system in Sf 21 cells
T3 sequence (P35354 18-604): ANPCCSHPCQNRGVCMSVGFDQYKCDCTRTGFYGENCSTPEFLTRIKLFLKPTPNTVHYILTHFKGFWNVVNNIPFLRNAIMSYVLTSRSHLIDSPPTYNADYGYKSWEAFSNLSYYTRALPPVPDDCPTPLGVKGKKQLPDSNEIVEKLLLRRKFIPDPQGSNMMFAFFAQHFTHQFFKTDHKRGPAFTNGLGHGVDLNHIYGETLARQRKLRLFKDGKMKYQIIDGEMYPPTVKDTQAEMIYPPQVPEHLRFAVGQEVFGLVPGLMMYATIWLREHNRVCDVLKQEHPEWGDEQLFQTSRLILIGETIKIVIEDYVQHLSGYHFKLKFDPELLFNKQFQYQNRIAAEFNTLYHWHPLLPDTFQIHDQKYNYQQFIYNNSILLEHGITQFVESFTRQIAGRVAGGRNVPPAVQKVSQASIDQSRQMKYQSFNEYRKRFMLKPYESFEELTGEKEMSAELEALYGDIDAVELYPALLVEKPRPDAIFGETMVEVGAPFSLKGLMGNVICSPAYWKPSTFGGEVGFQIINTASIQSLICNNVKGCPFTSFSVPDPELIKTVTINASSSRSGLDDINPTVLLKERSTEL
The assay can be described thus: Cyclooxygenase (COX-2) inhibitory bioassay. The class given is biochemical. The note with it: read-out: COX-2 inhibitory activity level.

Setting [8] is: read-out: α-Glucosidase inhibitory activity Percentage inhibition.
Where [9] appears, read: ATCC10231, read-out: Antimicrobial MIC C.a.
[10] abbreviates: pure compounds at 300 µg/mL, mean ± standard error, read-out: AChE inhibitory activity Percentage inhibition.
Setting [11] is: ATCC10231, n = 3, read-out: Antimicrobial MIC C.a.
Where [12] appears, read: ATCC11775, n = 3, read-out: Antimicrobial MIC E.c.
Setting [13] is: ATCC12600, n = 3, read-out: Antimicrobial MIC S.a.
[14] abbreviates: ATCC13883, Klebsiella pneumonia, n = 3, read-out: Antimicrobial MIC K.p.
[15] abbreviates: ATCC6051, n = 3, read-out: Antimicrobial MIC B.s.
[16] abbreviates: pure compounds at 300 µg/mL, mean ± standard error.

≈ marks a conversion by molar mass, not a printed value. Where two headings read alike, the source gives them in different places.

T2 sequence (O42275 24-633): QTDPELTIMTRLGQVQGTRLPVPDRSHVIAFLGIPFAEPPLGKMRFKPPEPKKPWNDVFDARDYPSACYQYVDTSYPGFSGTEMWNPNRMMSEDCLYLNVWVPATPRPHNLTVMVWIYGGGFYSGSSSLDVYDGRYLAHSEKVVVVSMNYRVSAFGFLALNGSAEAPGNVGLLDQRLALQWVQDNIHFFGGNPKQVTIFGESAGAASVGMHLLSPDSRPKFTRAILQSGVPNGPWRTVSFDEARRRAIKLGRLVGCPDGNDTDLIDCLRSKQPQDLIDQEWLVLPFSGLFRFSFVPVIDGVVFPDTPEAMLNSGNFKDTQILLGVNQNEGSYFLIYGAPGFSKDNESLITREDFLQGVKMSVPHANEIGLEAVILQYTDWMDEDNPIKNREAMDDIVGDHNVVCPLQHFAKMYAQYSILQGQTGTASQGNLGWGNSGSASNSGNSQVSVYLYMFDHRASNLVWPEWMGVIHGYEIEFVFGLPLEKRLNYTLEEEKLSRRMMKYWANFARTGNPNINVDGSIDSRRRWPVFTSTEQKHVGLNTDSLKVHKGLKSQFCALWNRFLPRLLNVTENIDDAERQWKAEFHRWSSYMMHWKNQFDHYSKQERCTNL
T1 sequence (P53341 whole entry): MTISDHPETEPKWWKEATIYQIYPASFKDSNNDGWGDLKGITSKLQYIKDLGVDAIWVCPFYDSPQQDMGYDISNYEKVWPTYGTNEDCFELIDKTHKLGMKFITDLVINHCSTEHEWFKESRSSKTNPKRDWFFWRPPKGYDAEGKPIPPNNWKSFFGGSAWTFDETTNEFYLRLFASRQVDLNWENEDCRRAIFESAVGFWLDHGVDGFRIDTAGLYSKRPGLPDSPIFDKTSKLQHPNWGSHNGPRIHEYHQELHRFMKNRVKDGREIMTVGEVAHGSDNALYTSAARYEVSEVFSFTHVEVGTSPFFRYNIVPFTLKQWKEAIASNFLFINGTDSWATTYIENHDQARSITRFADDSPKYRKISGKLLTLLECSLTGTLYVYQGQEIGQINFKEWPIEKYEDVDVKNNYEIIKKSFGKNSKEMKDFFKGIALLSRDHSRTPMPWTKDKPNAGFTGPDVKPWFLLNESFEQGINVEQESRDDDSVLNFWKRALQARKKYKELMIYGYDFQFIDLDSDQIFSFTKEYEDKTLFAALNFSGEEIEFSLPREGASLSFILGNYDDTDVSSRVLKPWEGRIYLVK

For `C[C@H]1O[C@H](O[C@H]2[C@H](O)[C@@H](O)[C@@H](O[C@H]3[C@H](O)[C@@H](O)C(O)O[C@@H]3CO)O[C@@H]2CO)[C@H](O)[C@@H](O)[C@@H]1N[C@H]1C=C(CO)[C@@H](O)[C@H](O)[C@H]1O` (stereo partly shown) [Acarbose, acarbose, reference compound], the inhibition at 250 µg/mL on yeast α-glucosidase (setting [8]) was 83.6 ± 2.6%.
For `C[C@@H]1[C@H](O)[C@@H](C)/C=C/C=C/C=C/C=C/C=C/C=C/C=C/[C@H](O[C@@H]2O[C@H](C)[C@@H](O)[C@H](N)[C@@H]2O)C[C@@H]2O[C@](O)(C[C@@H](O)C[C@@H](O)[C@H](O)CC[C@@H](O)C[C@@H](O)CC(=O)O[C@H]1C)C[C@H](O)[C@H]2C(=O)O` [Amphotericin B, amphotericin B, reference compound], the MIC (commonly the smallest concentration in the dilution series that meets the test's criterion for growth inhibition) in assay [1] (setting [9]) stood at 9.77 µg/mL (≈ 10.6 µM).
On to `CC1OC(Oc2c(-c3cc(O)c(O)c(O)c3)oc3cc(O)cc(O)c3c2=O)C(O)C(O)C1O` (stereo not shown) [Myricetrin-3-O-rhamnoside (1), Myricetrin-3-O-rhamnoside], for which the IC50 – broadly, the concentration that inhibits the measured activity by half – in assay [2] is 140 µM; at yeast α-glucosidase, 170 µM. Besides, the inhibition at 300 µg/mL in assay [2] (read-out: AChE inhibitory activity Percentage inhibition) worked out at 54.3 ± 1.1%; at yeast α-glucosidase (setting [8]), 89.1 ± 5.3%. Further, the MIC in assay [1] (setting [9]) amounted to 250 µg/mL (≈ 538 µM); in assay [3] (ATCC11775, read-out: Antimicrobial MIC E.c.) it was 250 µg/mL (≈ 538 µM); in assay [4] (ATCC12600, read-out: Antimicrobial MIC S.a.), 250 µg/mL (≈ 538 µM); in assay [5] (ATCC13883, read-out: Antimicrobial MIC K.p.) it was 250 µg/mL (≈ 538 µM); in assay [6] (ATCC6051, read-out: Antimicrobial MIC B.s.), 250 µg/mL (≈ 538 µM). For the same molecule, the inhibition at 25 µg/mL in assay [7] is less than 20%.
On to `O=c1c(O)c(-c2ccc(O)c(O)c2)oc2cc(O)cc(O)c12` [Quercetin (3), 3,3', 4',5,7-pentahydroxyflavone], for which the inhibition at 300 µg/mL in assay [2] (setting [10]) is 56.6 ± 0.3%; on yeast α-glucosidase (setting [8]), 67.1 ± 4.2%. Further, the MIC in assay [1] (setting [11]) was 20 µg/mL (≈ 66.2 µM); in assay [3] (setting [12]), greater than 250 µg/mL; in assay [4] (setting [13]) it was greater than 250 µg/mL; in assay [5] (setting [14]), 250 µg/mL (≈ 827 µM); in assay [6] (setting [15]), 30 µg/mL (≈ 99.3 µM).
For the molecule `O=C(/C=C/c1ccc(O)cc1)NCCc1c[nH]c2ccc(O)cc12` [Trans-N-(p-coumaroyl) serotonin (4), (E)-N-(4-hydroxycinnamoyl)-5-hydroxytryptamine], the IC50 in assay [2] (mean ± standard error, read-out: AChE inhibitory activity IC50 (converted)) is 46.5 µM; on yeast α-glucosidase, 16.4 µM. The inhibition at 300 µg/mL in assay [2] (setting [10]) is 72.6 ± 4.9%; in assay [2] (pure compounds at 300 µg/mL, read-out: AChE inhibitory activity level) it was 70 to 100%; at yeast α-glucosidase (setting [8]) it was 97.3 ± 3.2%. Besides, the MIC in assay [1] (setting [11]) amounted to 130 µg/mL (≈ 403 µM); in assay [3] (setting [12]), 250 µg/mL (≈ 776 µM); in assay [4] (setting [13]) it was 250 µg/mL (≈ 776 µM); in assay [5] (setting [14]) it was 250 µg/mL (≈ 776 µM); in assay [6] (setting [15]), 250 µg/mL (≈ 776 µM).
For the molecule “Quercetin-3-O-rhamnoside [Quercetin-3-O-rhamnoside (2)]”, the “AChE inhibitory activity Percentage inhibition” value in assay [2] (setting [16]) is reported as 53.3 ± 1.0 b,c. Besides, the “α-Glucosidase inhibitory activity Percentage inhibition” value at yeast α-glucosidase (setting [16]) turned out to be 47.0 ± 1.7 a. The “Antimicrobial MIC C.a.” value in assay [1] (n = 3) was 250 µg/mL. Moreover, in assay [3], the “Antimicrobial MIC E.c.” value is greater than 250 µg/mL. In addition, the “Antimicrobial MIC S.a.” value in assay [4] is greater than 250 µg/mL. Besides, in assay [5] (Klebsiella pneumonia, n = 3), the “Antimicrobial MIC K.p.” value was greater than 250 µg/mL. Also, the “Antimicrobial MIC B.s.” value in assay [6] was 130 µg/mL.
Turning to neomycin [reference compound], the “Antimicrobial MIC E.c.” value in assay [3] is 0.8 µg/mL. Besides, in assay [4], the “Antimicrobial MIC S.a.” value came out at 1.6 µg/mL. Moreover, in assay [5] (Klebsiella pneumonia, n = 3), the “Antimicrobial MIC K.p.” value stood at 0.8 µg/mL. The “Antimicrobial MIC B.s.” value in assay [6] is 1.6 µg/mL.
